Results as given in patent publication US20240158453A1, “Nucleic Acids That Manipulate Immune Pathways” (Children`s Medical Center Corporation, priority 2017, published 2024).
Starred links: 1 amine or outer side, 2 acyl side, 3 side chain; linkers in the order of their positions; H or OH if unused. Positions of bridges follow the written chain, without caps; N, C: chain ends. Non-standard residues stand in square brackets, D forms with d. Residues, ends and D or L forms follow the SMILES beside them. Chains are numbered I, II in the order given. *: point of attachment. Actinocin(9to1) = Cc1c2oc3c(C)ccc(C(=O)[*:1])c3nc-2c(C(=O)[*:2])c(N)c1=O; NMeV = CN[C@H](C(=O)O)C(C)C; Cbz = O=C(OCc1ccccc1)*; Sar = CNCC(=O)O; CH2F = FC*

Columns and labels:
[1] = tested on: primary BMDMs; assay: Seahorse metabolic analysis (ECAR, OCR) of TLR-induced glycolysis; format: cell-based; settings: for TLR-induced ECAR increase: primary BMDMs with inhibitor (2-DG 25 mM; Actinomycin D 1.5 μg/ml; BX795 5 μM; MRT67307 2.5 μM; Triciribine 20 μM), stimulated with LPS, P3C, R848; for ECAR / mitochondrial oxygen consumption (OCR): primary BMDMs or iBMDMs stimulated with the TLR ligand
Procedure: Seahorse Metabolic Analysis. Extracellular acidification rate (ECAR) and oxygen consumption rate (OCR) were measured with a Seahorse XFe96 Extracellular Flux Analyzer instrument primary BMDMs and iBMDMs
For real-time experiment, primary BMDMs (5×10^4 per well) and iBMDMs (7.5×10^4 per well) were seed in a Seahorse 96 well plate in complete DMEM medium. Cells were allowed to attach to the assay plate for 4-5 hours, then cells were washed one time with serum-free Seahorse Assay Medium and incubated in Seahorse Assay Medium containing 5% FBS, 10 mM Glucose and 2 mM Glutammine in 37° C. incubator without CO2 for 60 min. ECAR and OCR was measured under basal conditions, after treatment with TLR ligands (LPS 1 μg/ml; P3C 1 μg/ml; R848 1 μg/ml) or inhibitors (and their combination). In the assays which required pre-treatment with inhibitors, chemical inhibitors were injected into the wells by the Seahorse Analyzer, and the incubation time were allowed to proceed for 45 min, prior to the injection of TLR ligands. […] Data represent mean±SEM of triplicate wells.

[2] = target: T1, myddosome (UniProt P0AES6+P22366); assay: Coumermycin-induced myddosome formation in Myd88-/-/Trif-/- iBMDMs expressing 3×FLAG-MyD88-GyrB; format: cell-based, murine; settings: CM 0.5 μM
T1 construct: expressed in transfected cells; host or cells: Myd88-/-/Trif-/- iBMDMs, retroviral transduction (pMSCV-IRES-GFP)
Procedure: (§1) Gene expression analysis and ELISA. RNA was isolated from cell cultures using Qiashedder (Qiagen) and GeneJET RNA Purification Kit (Life Technologies). Purified RNA was analyzed for gene expression on a CFX384 real time cycler (Bio-rad) using TaqMan RNA-to-CT 1-Step Kit (Applied Biosystems) with probes specific for Rsad2, II-1b, Il-6 and Gapdh.
For myddosome isolation, iBMDMs (5×10^6) were stimulated with ligands for indicated times, and subsequently lysed in 400 μL of lysis buffer containing 50 mM Tris-HCl (pH 7.5), 150 mM NaCl, 5% Glycerol, 1 mM Sodium dioxycholate and 1% NP40. Protease inhibitors and phosphatase inhibitors were added prior to cell lysis. Lysates were spun at top speed for 15 minutes at a table-top centrifuge in the cold room (at 4° C.). The cleared supernatants were collected and 80 μL of the supernatants was saved as sample inputs. 0.5 μg of the anti-MyD88 antibody with 15 15 μl (bed volume) of protein G sepharose (for endogenous MyD88) or 15 μl (bed volume) of anti-FLAG (M2) agarose (for 3×FLAG-MyD88 alleles) was added to the remaining supernatants and the incubation were allowed to proceed for 4-5 hr at 4° C. on a nutator. The beads containing the protein complexes were then washed for 3 times with lysis buffer, and 60 μL of SDS loading buffer was added. The protein complexes were further eluted by heating at 65° C. for 15 minutes. A portion of eluted protein complexes (20 μl) were separated by SDS-PAGE and analyzed by western blot.
Cells were fixed at room temperature for 30 min, permeabilized with 0.2% Triton X-100 for 5 min at room temperature and […] with 2% goat serum in PBS supplemented with 50 mM ammonium chloride. Primary and secondary antibody staining were performed following product instructions. Working concentrations of primary antibodies were used as the following: pTBK1 (1:100), pp 38 (1:100), FLAG (M2) (1:100). Samples were imaged by the Zeiss 880 laser scanning confocal microscope.

[3] = tested on: Il-1b and Il-6 transcripts; assay: qPCR of TLR-induced Il-1b and Il-6 transcripts in primary BMDMs; format: cell-based; settings: primary BMDMs pretreated with ActD 1.5 μg/ml for 40 min, TLR ligands 4 h
Procedure: as §1

[4] = tested on: Myd88-/-/Trif-/- iBMDMs; assay: PI staining and LDH release quantification (TLR-induced necroptosis); format: cell-based, murine; settings: MyD88-RIP3 expressing cells; GSK872 2.5 μM; Nec-1 5 μM; ZVAD 10 μM
Procedure: (§2) PI staining and LDH release quantification. For experiments measuring end-point PI staining, PI (5 μM) was included in the culture media to monitor transient pore formation at the last 30 min for each incubation period. A Tecan plate reader was used to measure PI staining (excitation 535 nm, emission 617 nm). Supernatants were assayed for LDH release freshly after stimulation time courses using the Pierce LDH cytotoxicity colorimetric assay kit per the manufacturer's instruction. The same Tecan plate reader was used to measure LDH release (absorbance 490 nm and 680 nm). Cells treated with detergent-containing lysis buffer were used as positive control for PI staining, the resulted supernatants from treated cells were used as positive control for LDH release quantification.
Generation of synthetic MyD88 molecules. To generate MyD88-NpLxIS and MyD88 CpLxIS alleles, the cDNA sequence encoding the STING pLxIS motif (340-378 a.a.) was fused in tandem then attached to the cDNA sequence encoding the MyD88 protein either at the 5-prime end (for MyD88-NpLxIS) or at the 3-prime end (for MyD88-CpLxIS). The fusion cDNAs were then synthesized as gBLOCKs via IDT. The mutant alleles were also synthesized as gBLOCKs. To generate the MyD88-RIP3 allele, the cDNA sequence encoding the full-length RIP3 was attached the MyD88-encoding cDNA sequence at the 3-prime end. The fusion cDNA was then synthesized as a gBLOCK via IDT. All synthetic DNA sequences were optimized to avoid internal repeats and for optimal expression in murine cells via the IDT online program.

[5] = tested on: Myd88-/-/Trif-/- iBMDMs expressing MyD88-RIP3; assay: Microscopy imaging of cell morphology; format: cell-based, murine
Procedure: Microscopy imaging of cell morphology and live cell imaging. To determine cell morphology after TLR stimulation, Myd8^−/−/Trif^−/− iBMDMs expressing MyD88 and MyD88-RIP3 were seeded in 12-well plates (0.5×10^6 per well) and were subjected to indicated treatments (Staurosporine 1 μM; TLR ligands 1 μg/ml) to induce cell death. For static image capture, a Nikon Eclipse TS100 microscope was used with 40× magnification. Images were processed with the “NIS-Elements F” software. Representative images were chosen from at least three randomly chosen fields from one representative experiment of three independent experiments.

[6] = tested on: glycolysis; assay: 2-DG treatment of TLR-activated cells (Example 6); format: cell-based
[7] = target: T2, TLR4 (Mus musculus, UniProt Q9JHF9+Q9QUK6); assay: Isolation of protein complexes associated with activated TLR4; format: cell-based; settings: iBMDMs, LPS 100 ng/ml, within minutes
T2 construct: endogenous in cells; host or cells: WT iBMDMs
T2 sequence (Q8R4K2 whole entry): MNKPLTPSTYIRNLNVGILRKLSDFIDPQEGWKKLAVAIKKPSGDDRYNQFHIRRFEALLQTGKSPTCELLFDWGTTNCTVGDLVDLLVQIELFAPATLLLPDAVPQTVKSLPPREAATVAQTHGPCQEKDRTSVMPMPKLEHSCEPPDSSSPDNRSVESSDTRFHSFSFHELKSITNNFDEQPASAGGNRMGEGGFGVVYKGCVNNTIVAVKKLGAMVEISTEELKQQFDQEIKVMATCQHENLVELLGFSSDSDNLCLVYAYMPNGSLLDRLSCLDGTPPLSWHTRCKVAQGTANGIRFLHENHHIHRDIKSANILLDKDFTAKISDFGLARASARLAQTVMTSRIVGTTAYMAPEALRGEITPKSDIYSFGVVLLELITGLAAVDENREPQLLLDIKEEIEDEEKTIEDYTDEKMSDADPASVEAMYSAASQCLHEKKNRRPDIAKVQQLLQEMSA
T2 sequence (Q9QUK6 26-835): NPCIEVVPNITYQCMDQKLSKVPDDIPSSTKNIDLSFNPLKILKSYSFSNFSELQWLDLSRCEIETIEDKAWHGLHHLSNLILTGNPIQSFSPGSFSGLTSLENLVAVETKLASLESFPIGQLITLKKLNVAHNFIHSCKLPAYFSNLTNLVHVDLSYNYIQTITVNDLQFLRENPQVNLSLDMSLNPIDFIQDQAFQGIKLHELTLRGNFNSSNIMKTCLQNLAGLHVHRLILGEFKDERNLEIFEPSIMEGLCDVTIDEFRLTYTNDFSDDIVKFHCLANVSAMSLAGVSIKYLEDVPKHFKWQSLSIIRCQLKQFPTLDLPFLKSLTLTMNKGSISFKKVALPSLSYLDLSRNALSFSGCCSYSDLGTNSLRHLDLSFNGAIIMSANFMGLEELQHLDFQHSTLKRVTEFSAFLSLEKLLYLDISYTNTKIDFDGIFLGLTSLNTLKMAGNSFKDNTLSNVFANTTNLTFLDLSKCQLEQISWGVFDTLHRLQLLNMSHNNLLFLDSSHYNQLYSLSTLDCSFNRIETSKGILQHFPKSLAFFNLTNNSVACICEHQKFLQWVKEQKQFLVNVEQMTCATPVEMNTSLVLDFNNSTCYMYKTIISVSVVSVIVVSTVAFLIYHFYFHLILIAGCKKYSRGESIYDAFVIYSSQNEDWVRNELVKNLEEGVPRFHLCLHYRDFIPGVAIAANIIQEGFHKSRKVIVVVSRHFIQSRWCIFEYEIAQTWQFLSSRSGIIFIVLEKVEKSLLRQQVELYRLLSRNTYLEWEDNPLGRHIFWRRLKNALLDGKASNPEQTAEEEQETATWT
T2 sequence (Q9JHF9 19-160): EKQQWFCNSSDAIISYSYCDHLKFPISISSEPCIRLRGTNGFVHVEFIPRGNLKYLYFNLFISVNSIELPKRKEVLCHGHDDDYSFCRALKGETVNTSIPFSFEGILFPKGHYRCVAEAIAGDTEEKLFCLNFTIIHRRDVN
T2 sequence (P22366 whole entry, further chain): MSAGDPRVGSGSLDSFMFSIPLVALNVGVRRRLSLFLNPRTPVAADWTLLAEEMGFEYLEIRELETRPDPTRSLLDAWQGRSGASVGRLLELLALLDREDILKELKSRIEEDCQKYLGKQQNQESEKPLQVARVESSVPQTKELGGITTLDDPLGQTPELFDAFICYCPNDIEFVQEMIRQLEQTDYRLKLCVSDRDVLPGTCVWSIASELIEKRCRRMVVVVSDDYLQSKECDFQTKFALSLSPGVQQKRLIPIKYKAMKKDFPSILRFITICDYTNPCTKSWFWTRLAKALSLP
T2 sequence (Q8CFA1 whole entry, further chain): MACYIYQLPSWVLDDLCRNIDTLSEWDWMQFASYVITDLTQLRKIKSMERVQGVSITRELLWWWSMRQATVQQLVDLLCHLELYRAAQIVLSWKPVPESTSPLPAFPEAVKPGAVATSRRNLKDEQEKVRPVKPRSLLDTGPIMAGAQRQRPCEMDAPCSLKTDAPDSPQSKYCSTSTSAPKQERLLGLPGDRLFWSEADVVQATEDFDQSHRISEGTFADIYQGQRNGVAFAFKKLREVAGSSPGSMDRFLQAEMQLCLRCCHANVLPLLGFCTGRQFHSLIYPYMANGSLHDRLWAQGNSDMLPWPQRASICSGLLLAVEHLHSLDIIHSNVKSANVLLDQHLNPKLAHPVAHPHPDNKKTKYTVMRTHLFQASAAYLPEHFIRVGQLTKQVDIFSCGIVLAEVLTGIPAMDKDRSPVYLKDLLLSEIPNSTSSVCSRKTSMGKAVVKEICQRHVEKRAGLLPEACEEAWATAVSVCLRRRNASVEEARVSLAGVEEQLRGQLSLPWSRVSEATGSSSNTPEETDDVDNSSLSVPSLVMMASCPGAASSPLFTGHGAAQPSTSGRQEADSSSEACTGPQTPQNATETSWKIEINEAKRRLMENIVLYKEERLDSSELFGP
Procedure: For isolation of protein complexes associated with activated TLRs, cells were lysed using a modified lysis buffer containing 50 mM HEPES, 150 mM NaCl, 0.5% DDM (n-Dodecyl-β-D-Maltoside), 0.05% CHS (cholesteryl hemisuccinate). This buffer is suitable for the isolation of membrane protein complexes. 0.5 μg of biotinylated anti-TLR4 (Sal5-21) antibody was used (per sample) to capture the TLR4 signaling complex with streptavidin agarose. 15 μl (bed volume) of anti-HA agarose was used (per sample) to capture the TLR9-HA signaling complex. Immunoprecipitates were washed 3 times with the modified lysis buffer and analyzed by western blot.

[8] = tested on: IRF3; assay: Western analysis of IRF3 activation in primary BMDMs stimulated with TLR ligands; format: cell-based
Procedure: (§3) Western blotting and immunoprecipitation. For western analysis of signaling pathway activation, primary BMDMs (1×10^6) or iBMDMs (0.5×10^6) were seeded in 12 well plates and stimulated with ligands for indicated periods, and subsequently lysed in 300 μl 1×SDS containing 8 M UREA. Lysates were incubated at 65° C. for 15 min. Before SDS-PAGE separation, lysates were passed through a BD 1 ml sub-Q syringe attached to a 26G needle to reduce viscosity. 15 μl of individual samples (15-20 μg protein from whole cell extract) were separated by SDS-PAGE followed by western analysis.

[9] = tested on: AKT; assay: Western analysis of AKT phosphorylation in primary BMDMs stimulated with TLR ligands; format: cell-based; settings: primary WT BMDMs
Procedure: as §3

[10] = tested on: TBK1; assay: Western analysis of TBK1 activation in primary BMDMs stimulated with TLR ligands; format: cell-based
Procedure: as §3

[11] = tested on: primary BMDMs; assay: LDH release from primary BMDMs stimulated with LPS in the presence of inhibitors; format: cell-based; settings: 18 hr
Procedure: as §2

[12] = tested on: PARP; assay: PARP cleavage by western analysis; format: cell-based, murine; settings: Myd88-/-/Trif-/- iBMDMs expressing MyD88-RIP3, TLR ligands or staurosporine 1 μM, 6 hr
Procedure: as §3

O=C(NCCCNc1nc(Nc2cccc(NC(=O)N3CCCC3)c2)ncc1I)c1cccs1 [BX795]
TLR-induced ECAR increase [1]: dampened

coumermycin [CM]
myddosome formation [2]: induced myddosome formation | p38 activation (nuclear staining pattern) ([2]; 30 min): clearly activated | pTBK1 staining of MyD88 specks ([2]; 30 min): stained positive for pTBK1 | phosphorylated p38 (pp38) within MyD88 specks ([2]; 30 min): not detected within MyD88 specks | cells with distinct MyD88 specks ([2]; 30 min, immunofluorescence): more than 60% | Il-1b expression ([2]; 4 hr, qPCR): comparable to that induced by LPS and P3C treatment

Cc1c2oc3c(C)ccc(C(=O)N[C@@H]4C(=O)N[C@H](C(C)C)C(=O)N5CCC[C@H]5C(=O)N(C)CC(=O)N(C)[C@@H](C(C)C)C(=O)O[C@@H]4C)c3nc-2c(C(=O)N[C@@H]2C(=O)N[C@H](C(C)C)C(=O)N3CCC[C@H]3C(=O)N(C)CC(=O)N(C)[C@@H](C(C)C)C(=O)O[C@@H]2C)c(N)c1=O [actinomycin D] (I: T[dV]P[Sar][NMeV] / II: T[dV]P[Sar][NMeV]; ester I:1-I:C, II:1-II:C; linker I:N-II:N via Actinocin(9to1))
TLR-induced ECAR increase [1]: still able to increase ECAR | TLR-induced transcription of Il-1b and Il-6 [3]: prevented

CC(C)S(=O)(=O)c1ccc2nccc(Nc3ccc4scnc4c3)c2c1 [GSK872]
TLR-induced LDH release (cell death) with inhibitor [4]: blocked | TLR-induced PI staining (membrane rupture) with inhibitor [4]: blocked | morphological changes of TLR-stimulated MyD88-RIP3 cells with inhibitor pre-treatment ([5]; GSK872 2.5 μM): could be suppressed

OCC1OC(O)CC(O)C1O (stereo not shown) [2-DG]
cytokine gene transcription versus translation [6]: uncoupled cytokine gene transcription from translation | host responses at the receptor proximal [6]: did not affect | TLR-induced ECAR increase [1]: blocked

lipopolysaccharide [LPS]
recruitment of endogenous MyD88, IRAK2 and IRAK4 to TLR4 [7]: inducibly recruited | ECAR [1]: increased ECAR rapidly | mitochondrial oxygen consumption (OCR) [1]: without causing discernible changes | IRF3 activation (pIRF3) [8]: activated | AKT phosphorylation [9]: induced | TBK1 activation (pTBK1) [10]: activated

COC(=O)C[C@H](NC(=O)[C@H](C)NC(=O)[C@@H](NC(=O)OCc1ccccc1)C(C)C)C(=O)CF [ZVAD] (Cbz-Val-Ala-Asp(OMe)-CH2F)
TLR-induced LDH release (cell death) with inhibitor [4]: failed to prevent | TLR-induced PI staining (membrane rupture) with inhibitor [4]: failed to prevent | necroptosis (LDH release) of primary BMDMs ([11]; ZVAD 10 μM pre-treatment followed by LPS): induced necroptosis

CN[C@@H]1C[C@H]2O[C@@](C)([C@@H]1OC)n1c3ccccc3c3c4c(c5c6ccccc6n2c5c31)C(=O)NC4 [staurosporine]
cell morphology ([5]; 1 hr post-stimulation, TLR ligands or staurosporine 1 μM): membrane blebbing, generation of apoptotic bodies/vesicles | PARP cleavage [12]: induced PARP cleavage

CN1C(=O)C(Cc2c[nH]c3ccccc23)NC1=S (stereo not shown) [Nec-1]
TLR-induced LDH release (cell death) with inhibitor [4]: unaffected | TLR-induced PI staining (membrane rupture) with inhibitor [4]: unaffected | prevention of ZVAD plus LPS induced necroptosis ([11]; primary BMDMs): could be prevented

CCOCc1nc2c(N)nc3ccccc3c2n1CC(C)(C)O [R848]
ECAR [1]: increased ECAR rapidly | mitochondrial oxygen consumption (OCR) [1]: without causing discernible changes | AKT phosphorylation [9]: induced AKT phosphorylation | TBK1 activation (pTBK1) [10]: activated

O=C(NCCCNc1nc(Nc2cccc(CN3CCOCC3)c2)ncc1C1CC1)C1CCC1 [MRT67307]
TLR-induced ECAR increase [1]: dampened
